# Literature values in the CATMoS acute toxicity set (Mansouri et al. 2021).
# Values joined by “and” are separate entries in the source; they are usually repeats but may differ in a detail not shown here. Equal entries are not always repeated.
# Experiment: rat acute oral toxicity
# Conditions: in vivo
# Text: […]The data set underlying the modeling effort for this project was initially compiled by NICEATM and U.S. EPA’s CCTE. Briefly, LD50 data were collected from rat acute oral systemic toxicity tests, including limit tests, ranges/confidence intervals, and discrete LD50 values. The full data set included 21,200 LD50 entries for 15,688 substances. […] Data were reviewed to ensure that LD50 values with obvious errors in the extracted data such as unit conversion errors (e.g., comma and decimal separator misplacements) were either fixed or removed. After this review, 16,209 LD50 values remained. Many of the chemicals represented had multiple LD50 entries, requiring that a single representative value per Chemical Abstracts Service Registry Number (CASRN) identifier be defined to facilitate modeling efforts. Based on ATWG feedback and to define the representative LD50 as a protective value while accounting for the distribution across multiple LD50s, the median of the lowest quartile was computed using only discrete LD50 values (omitting limit test data and range and confidence interval data). A detailed summary of the data compilation is available online on the NICEATM webpage dedicated to the collaborative modeling project (NTP 2020).
# […][…] For categorical designations, limit test and range/confidence interval LD50 data were integrated wherever possible. As such, the number of chemicals with end point values/calls varies across the modeling end points (Table 3) based on whether chemicals had representative LD50 values and/or other data. If a chemical had both, the representative value was used to determine categorical calls rather than limit test data. Some data were useable only for certain end points and categories depending on the thresholds. For example, ranges that spanned multiple hazard categories were considered only for the binary (very toxic/nontoxic) end points and omitted from rendering a determination for hazard category assignment.
# […]The final data set comprising 11,992 chemicals was split into training and evaluation sets […], respectively. This process was performed semirandomly by ordering chemicals based on the five end points (categorical and continuous LD50 values) and partitioning every fourth record into the evaluation set accordingly. This approach was taken to ensure an equivalent distribution of the LD50 values and the different hazard categories between the training and the evaluation sets without supervised sampling of the chemicals based on structures (Figure 1A). The sources of the chemical structures were also kept equivalent between the two sets, with chemical structures obtained from DSSTox, being the highest quality, representing over 75% of each set (Figure 1B).
row,SMILES,LD50
1,O=c1nc[nH]c2c1ncn2[C@@H]1O[C@H](COP(=O)(O)OP(=O)(O)O)[C@@H](O)[C@H]1O,3790 mg/kg
2,CCOC(=O)CCC1(CCC(=O)OCC)c2ccccc2-c2ccccc21,6170 mg/kg
3,Nc1cc2c(S(=O)(=O)O)cccc2c(S(=O)(=O)O)c1N,29000 mg/kg
4,CCCSC(=O)Cl,1130 mg/kg
5,O=c1c2ccccc2nc2n1OCC2,395 mg/kg
6,CSC(C)=NOC(=O)N(C)SSN(C)C(=O)ON=C(C)SC,190 mg/kg
7,O=C1CCC(N2C(=O)c3ccccc3C2=O)C(=O)N1 (configuration not stated),113 mg/kg
8,C[N+]1(CC[N+]2(C)CC3C4C=CC(CC4)C3C2)CCCC1 (configuration not stated),1810 mg/kg
9,CC(C)Cc1ccc(CC(=O)O)cc1,2300 mg/kg
10,FC(F)(F)c1nc2c(Br)c(Cl)c(Cl)cc2[nH]1,2.21 mg/kg
11,COc1cc2nc(N3CCN(C(=O)C4CCCO4)CC3)nc(N)c2cc1OC (configuration not stated),5500 mg/kg
12,CCCCCC(=O)c1ccc(N)cc1,216 mg/kg
13,N#CCCOCCCCOCCC#N,4000 mg/kg
14,COCCOCc1ccccc1,2290 mg/kg
15,COC(=O)C1=C(C#N)NC(C)=C(C(=O)OC(C)C)C1c1cccc([N+](=O)[O-])c1 (configuration not stated),1560 mg/kg
16,[O-][N+](=Nc1ccccc1)c1ccccc1,620 mg/kg
17,CN1CCCC(CC2c3ccccc3Sc3ccccc32)C1 (configuration not stated),1460 mg/kg
18,CC1CC(C)(C)OB(OC(C)CC(C)(C)OB2OC(C)CC(C)(C)O2)O1 (configuration not stated),4720 mg/kg
19,CN(C)[C@@H]1C(O)=C(C(N)=O)C(=O)[C@@]2(O)C(O)=C3C(=O)c4c(O)cccc4[C@@](C)(O)[C@H]3[C@H](O)[C@@H]12,4800 mg/kg
20,O=NN1CCCOC1,600 mg/kg
21,COC(=O)C=CC(=O)OC,2240 mg/kg
22,O=C(CCC(=O)OC1CCCCC1)OC1CCCCC1,12000 mg/kg
23,C=C(C)C(=O)OCCC#N,7330 mg/kg
24,O=C1CCCO1,1540 mg/kg
25,O=[N+]([O-])c1cccc2[nH]c(C(F)(F)F)nc12,10.6 mg/kg
26,CS(=O)C(C)(C)C(N)=O (configuration not stated),16000 mg/kg

row,SMILES,LD50
1,Cc1ccn(C(=O)NCCCCCCNC(=O)n2ccc(C)n2)n1,4850 mg/kg
2,O=C(O)c1cc(C(=O)O)cc(S(=O)(=O)O)c1,2600 mg/kg and 6450 mg/kg
3,CN(N=O)C(N)=O,110 mg/kg
4,O=[N+]([O-])c1cc2[nH]c(C(F)(F)F)nc2c(Cl)c1Cl,55 mg/kg
5,COC(C)CC(CC(OC)OC)OC (configuration not stated),4090 mg/kg
6,O=C(CCCN1CCC(O)CC1)c1ccc(F)cc1,2400 mg/kg
7,CC(C)CCN(C)C,225 mg/kg
8,CC(C)(C)/N=C(\NC#N)Nc1cccnc1,278 mg/kg
9,CCOC(=S)c1ccc(Cl)cc1,995 mg/kg
10,CC(=O)C(/N=N/c1ccc(-c2ccc(/N=N/C(C(C)=O)C(=O)Nc3ccccc3)c(Cl)c2)cc1Cl)C(=O)Nc1ccccc1 (configuration not stated),2230 mg/kg
11,COc1c(C(C)(C)C)cc([N+](=O)[O-])c(C)c1[N+](=O)[O-],339 mg/kg
12,COc1ccc2c(=O)c3ccccc3oc2c1CN1CCCCC1,183 mg/kg
13,Cc1cc[nH]n1,710 mg/kg
14,Fc1cc(Br)c2nc(C(F)(F)F)[nH]c2c1,5.65 mg/kg
15,CCOP(=O)(Cc1ccc(-c2nc3ccccc3s2)cc1)OCC,1560 mg/kg
16,NCCOCCO,3000 mg/kg
17,CC(=O)[C@H]1CC[C@H]2[C@@H]3CC[C@H]4C[C@H](O)CC[C@]4(C)[C@H]3C(=O)C[C@]12C,297 mg/kg
18,NC(=O)c1ccc([N+](=O)[O-])cc1,476 mg/kg
19,Cn1c(=O)c2c(ncn2CC(=O)O)n(C)c1=O,900 mg/kg
20,C=CCSC(C)C1(CC(C)C)C(=O)N=C(O)NC1=O (configuration not stated),417 mg/kg
21,CCC1NC(=O)C2C(Cl)C(Cl)CN2C(=O)C(CO)NC(=O)CC(c2ccccc2)NC(=O)C(CO)NC1=O (configuration not stated),5 mg/kg
22,CCCCCCCCCCCC(=O)O,12000 mg/kg
23,CN(c1ccc(Cl)cc1Br)c1c([N+](=O)[O-])cc([N+](=O)[O-])cc1C(F)(F)F,4.5 mg/kg
24,CN(C(=O)CN(CCO)CC(=O)N(C)C(C)(C)Cc1ccccc1)C(C)(C)Cc1ccccc1,1000 mg/kg and 675 mg/kg
25,CNC(=O)N1C(=O)CN=C(c2ccccc2)c2cc([N+](=O)[O-])ccc21,2280 mg/kg
26,CCCOP(=O)(OC=C(Cl)Cl)OCCCl (configuration not stated),25 mg/kg
